# Measurements taken from patent publication US10815505B2, “Microbial oil extracted from stramenopiles” (priority 2009, dated 2020).
# Several values for one entry are separate records, joined by “and”; a condition that tells them apart may be missing. Equal entries are not always repeated. Where two headings read alike, the source gives them in different places.
# Columns and labels:
# [1] = tested on: T. aureum-derived Δ5 desaturase; format: cell-based, Thraustochytrium aureum; conditions: S. cerevisiae expressing TauΔ5des, (product × 100)/(substrate + product)
# Experimental: In order to verify that the acquired gene was Δ5 desaturase, overexpression experiment was conducted using a budding yeast S. cerevisiae as a host. First, the acquired gene was incorporated at the EcoRI/XhoI site of a yeast vector pYES2/CT (Invitrogen) to construct an expression vectorpYΔ5des. The constructed expression vector pY5Δdes was then introduced into S. cerevisiae, and GC analysis was performed after extracting and methylating the transfectant fatty acids obtained by using the lithium acetate technique. A gas chromatograph GC-2014 (Shimadzu Corporation) was used for the GC analysis, which was performed under the following conditions. Column: HR-SS-10 (30 m×0.25 mm; Shinwa Chemical Industries Ltd.), column temperature: 150° C.→(5° C./min)→220° C. (10 min), carrier gas: He (1.3 mL/min). GC-17A and GCMS-QP-5000 (Shimadzu Corporation) were used for GC-MS analysis, which was performed using a DB-1 capillary column (0.25 mmi.d.×30 m, film thickness 0.25 μm; Agilent) under the following conditions: column temperature 160° C.→(4° C./min)→260° C., injector port temperature 250° C. For peaks that caused troubles in the analyses, the fatty acids were analyzed after picolinyl esterification, using the same apparatuses and columns under the temperature condition 240° C.→(2.5° C./min)→260° C. (15 min)→(2.5° C./min)→280° C.
# [2] = tested on: Saccharomyces cerevisiae (pYES2/CT, mock); test: Mock (pYES2/CT) introduced yeast, GC analysis of fatty acids; format: cell-based; conditions: 100 × product/(product + substrate)
# Experimental: By using a plasmid containing the full length of the P. pyriformis-derived Δ12 desaturase gene as a template, a PCR was performed with primers Pry-F (SEQ ID NO: 60 in the Sequence Listing) and Pyr-R (SEQ ID NO: 61 in the Sequence Listing), using a PrimeSTAR GC polymerase kit (Takara Bio). The PCR added a HindIII restriction enzyme site and an XbaI restriction enzyme site at the both ends. The amplified fragments were incorporated in a pGEM-T-Easy vector (Promega), and sequence analysis was performed. […] As a result, a Δ12 desaturase gene expression vector pYpΔ12Des was constructed. […] For peaks that caused troubles in the analyses, the fatty acids were analyzed after picolinyl esterification, using the same apparatuses and columns under the temperature condition 240° C.→(2.5° C./min)→260° C. […]
# In order to verify that the Δ12 desaturase was encoded by the acquired gene, an expression vector was constructed, and an expression experiment was conducted using a budding yeast S. cerevisiae (Invitrogen) as a host. […] The conversion efficiency from oleic acid to linoleic acid was 23.5±1.23%, as calculated according to the following equation. […]
# [3] = tested on: A. limacinum transfectants; test: G418 resistance on PDA agar plate, ub-Neo^r transfectants; format: cell-based, Aurantiochytrium limacinum mh0186
# Experimental: (§1) The transfectants were cultured in 0.5 mg/ml G418-containing GY liquid medium. The wild-type strain was cultured in GY liquid medium containing no G418. The culture fluids of these strains were spotted in 10-μl portions on PDA agar plate media containing G418 (0, 0.2, 0.5, 1, 2, 4 mg/ml), and growth on the agar plate media was observed after culturing the cells at 25° C. for 2 days. It was found as a result that the proliferation was inhibited at 0.2 mg/ml G418 in the wild-type strain, whereas the transfectants proliferated even in the presence of 4 mg/ml G418 (FIG. 13A). Further, there was no change in G418 resistance, and proliferation was observed even at a G418 concentration of 32 mg/ml in a similar experiment conducted with PDA agar plate media containing G418 (0, 2, 4, 8, 16, 32 mg/ml) after subculturing the transfectants five times in a GY liquid medium containing no G418 (FIG. 13B).
# [4] = tested on: A. limacinum wild-type strain; test: G418 resistance on PDA agar plate, wild-type strain; format: cell-based, Aurantiochytrium limacinum mh0186; conditions: 25° C., 2 days
# Experimental: as §1
# [5] = tested on: Thraustochytrium aureum-derived Δ5 desaturase; test: Fatty acid composition of Δ5 desaturase-introduced Aurantiochytrium sp. mh0186 (mhΔ5neo^r), GC analysis; format: cell-based; conditions: host mh0186; 0.1 mM ETA (to EPA) or DGLA (to AA) in medium
# Experimental: The transformed clone obtained in Example 6, (3), v. was cultured for 3 days, and mhneo^r and mhΔ5neo^r were analyzed by GC analysis after extracting the fatty acid methyl ester. Separately, 0.1 mM ETA or DGLA, exogenous fatty acids used as a substrate by Δ5 desaturase, was added to medium for incorporation into Labyrinthula, and GC analysis was performed after extracting the fatty acids as in the overexpression experiment using yeast. A gas chromatograph GC-2014 (Shimadzu Corporation) was used for the GC analysis, which was performed under the following conditions. Column: HR-SS-10 (30 m×0.25 mm; Shinwa Chemical Industries Ltd.), column temperature: 150° C.→(5° C./min)→220° C. (10 min), carrier gas: He (1.3 mL/min).
# ETA or DGLA used as a substrate by Δ5 desaturase was also added to medium at 0.1 mM for incorporation into Labyrinthula. As a result, the precursor substances converted into EPA and AA in Labyrinthula, and the content increased, as observed in the Δ5 desaturase expression experiment using yeast (Tables 9 and 10). […] This experiment was repeated in three or more confirmatory experiments to confirm reproducibility. All experiments produced the same results.
compound,measurement,setting,value
"CCCCC/C=C\C/C=C\CCCCCCCC(=O)O [18:2^Δ9,12, linoleic acid]",Percentage of substrate converted (%),[1],0.0%
Eicosadienoic acid [C20:2n-6 Eicosadienoic acid],Percentage of substrate converted (%),[1],0.0%
Eicosatrienoic acid [C20:3n-3 Eicosatrienoic acid],Percentage of substrate converted (%),[1],0.0%
"CC/C=C\C/C=C\C/C=C\CCCCCCCC(=O)O [18:3^Δ9,12,15, α-linolenic acid]",Percentage of substrate converted (%),[1],0.0%
CCCCCC/C=C\CCCCCCCC(=O)O [16:1^Δ9],Conversion efficiency (%),[2],0%
CN[C@@H]1[C@@H](O)[C@@H](O[C@@H]2[C@@H](O)[C@H](O[C@H]3O[C@H]([C@@H](C)O)[C@@H](O)[C@H](O)[C@H]3N)[C@@H](N)C[C@H]2N)OC[C@]1(C)O [G418],G418 concentration at which proliferation was still observed,"[3]; PDA agar plate, 25° C., 2 days, highest tested 4 mg/ml",4 mg/mL
same,G418 concentration at which proliferation was still observed,"[3]; after subculturing five times without G418, highest tested 32 mg/ml",32 mg/mL
same,G418 concentration at which proliferation was inhibited,[4],0.2 mg/mL
eicosatetraenoic acid [ETA],Conversion efficiency of the precursor substance in Labyrinthula,[5],75% and 75.2%
same,Percentage of substrate converted (%),[1],32%
same,Percentage of substrate converted (%),[1]; listed as C20:4n-3 Eicosatetraenoic acid (ETA),32.0%
"CCCCC/C=C\C/C=C\C/C=C\CCCCCCC(=O)O [DGLA, dihomo-γ-linolenic acid]",Conversion efficiency of the precursor substance in Labyrinthula,[5],63% and 62.9%
same,Percentage of substrate converted (%),[1],27%
same,Percentage of substrate converted (%),[1]; listed as C20:3n-6 Dihomo-g-linolenic acid (DGLA),27.0%
